This is an account of results in patent publication US10638755B2, “Antimicrobial compositions” (Symrise AG, priority 2013, dated 2020).

Where two headings read alike, the source gives them in different places.

One assay relates to Candida albicans. Kind of assay: Minimum inhibitory concentration (MIC) according to DIN 58940 and Kull Synergy Index. In kind it is cell-based. The following applies: for MIC: Candida albicans.
For another assay, the system named is Escherichia coli. Described as above. In kind it is cell-based. The following applies: for MIC: Escherichia coli.
The next assay relates to Pseudomonas aeruginosa. Described as above. In kind it is cell-based. The following applies: for MIC: Pseudomonas aeruginosa.
A further assay has as its system Staphylococcus aureus. The description is as above. In kind it is cell-based. Particulars: for MIC: Staphylococcus aureus.
A further assay concerns Aspergillus brasiliensis. The description is as above. In kind it is cell-based. Particulars: for MIC: Aspergillus brasiliensis.
Another assay deals with A. brasiliensis. Kind of assay: Colony counts in formulation over 28 days and Kull Synergy Index against A. brasiliensis. In kind it is cell-based, Aspergillus brasiliensis. An excerpt:
To calculate the synergism between compounds of formula (I) and other antimicrobial actives, the Kull equation^1 2 was used SI=(Cmixture×PA)/CA+(Cmixture×PB)/CB (I) where • SI is the Synergy Index according to Kull^1), 2) • CA is the cell count for substance A • CB is the cell count for substance B • Cmixture is the cell count for the mixture of substances A and B • PA is the proportion of the substance A in the mixture • PB is the proportion of the substance B in the mixture.
Colony counts of <100 were arbitrarily set to 100, in order to allow for synergy calculations with the above equation. The abbreviation “n.a.” means not applicable.

The conditions of assay [1]: chemical in vitro assay; constituents of Tagetes mendocina; cited from earlier work.
Assay [2] deals with subcuteaneous inflammation. The following applies: administered intraperitoneally; Il Farmaco 2000; cited from earlier work.
The next assay has as its system mold. The following applies: moist alfalfa hay; Agronomy Journal 1955; cited from earlier work.
Setting [3] is: day 0, 1.0% (total) in formulation.
Setting [4] is: day 2, 1.0% (total) in formulation.
Where [5] appears, read: day 7, 1.0% (total) in formulation.
Setting [6] is: day 14, 1.0% (total) in formulation.
Setting [7] is: day 28, 1.0% (total) in formulation.

As to `CCCCCCC(O)CO` (stereo not drawn) [1,2-Octanediol], the minimum inhibitory concentration (MIC) in the assay on Candida albicans (DIN 58940) stood at 5000 µg/mL; in the assay on Escherichia coli (DIN 58940) it was 2500 µg/mL; in the assay with Pseudomonas aeruginosa (DIN 58940), 5000 µg/mL; in the assay with Staphylococcus aureus (DIN 58940), 5000 µg/mL; with Aspergillus brasiliensis (DIN 58940), 1000 µg/mL.

Regarding `OCCCO` [1,3-Propanediol], in the assay with Candida albicans (DIN 58940), the “MIC values Candida albicans” value is on record as 100000 ppm. For the same compound, in the assay on Escherichia coli (DIN 58940), the “MIC values Escherichia coli” value is reported as 100000 ppm. Besides, the “MIC values Pseudomonas aeruginosa” value in the assay with Pseudomonas aeruginosa (DIN 58940) was 100000 ppm. In the assay on Staphylococcus aureus (DIN 58940), the “MIC values Staphylococcus aureus” value was determined as 125000 ppm. For the same compound, the “MIC values Aspergillus brasiliensis” value in the assay on Aspergillus brasiliensis (DIN 58940) was 150000 ppm.

Turning to `OCCCc1ccccc1` [3-Phenylpropanol], the MIC with Candida albicans (DIN 58940) was 5000 µg/mL; in the assay with Escherichia coli (DIN 58940) it was 2000 µg/mL; with Pseudomonas aeruginosa (DIN 58940) it was 2000 µg/mL; in the assay on Staphylococcus aureus (DIN 58940) it was 2000 µg/mL; with Aspergillus brasiliensis (DIN 58940) it was 2000 µg/mL.

For `CCCCCCCOCC(O)CO` (stereo not drawn) [3HOPD, 3-heptyloxy-1,2-propanediol], the Colony counts is recorded as 220.000 cfu/g formulation in the assay on A. brasiliensis (setting [3]); 320.000 cfu/g formulation in the assay with A. brasiliensis (setting [4]); 340.000 cfu/g formulation with A. brasiliensis (setting [5]); 300.000 cfu/g formulation in the assay on A. brasiliensis (setting [6]); 170.000 cfu/g formulation in the assay on A. brasiliensis (setting [7]). For the same compound, the Relative colony counts was determined as 1.0000 in the assay on A. brasiliensis (setting [3]); 1.4545 with A. brasiliensis (setting [4]); 1.5455 with A. brasiliensis (setting [5]); 1.3636 with A. brasiliensis (setting [6]); 0.7727 with A. brasiliensis (setting [7]).

Turning to `CC(=O)c1ccc(O)cc1` [4HAP, 4-hydroxyacetophenone], the antioxidant activity entry in assay [1] is on record as “one of the active constituents”. For the same compound, the anti-inflammatory activity entry in [2] is given as “reducing subcuteaneous inflammation”. Moreover, the Colony counts is 300.000 cfu/g formulation in the assay with A. brasiliensis (setting [3]); 56.000 cfu/g formulation in the assay with A. brasiliensis (setting [4]); 1.900 cfu/g formulation with A. brasiliensis (setting [5]); 1.900 cfu/g formulation in the assay on A. brasiliensis (setting [6]); less than 100 cfu/g formulation in the assay with A. brasiliensis (setting [7]). The Relative colony counts in the assay with A. brasiliensis (setting [3]) stood at 1.0000; with A. brasiliensis (setting [4]) it was 0.1867; in the assay with A. brasiliensis (setting [5]), 0.0063; in the assay with A. brasiliensis (setting [6]), 0.0063; in the assay on A. brasiliensis (setting [7]) it was 0.0003. Further, the MIC with Candida albicans (DIN 58940) is 6000 µg/mL; in the assay with Escherichia coli (DIN 58940), 4000 µg/mL; in the assay with Pseudomonas aeruginosa (DIN 58940), 4000 µg/mL; in the assay with Staphylococcus aureus (DIN 58940), 6000 µg/mL; in the assay on Aspergillus brasiliensis (DIN 58940), 4000 µg/mL. For the same compound, in the assay on mold, the “prevention of mold growth” value is “not prevent mold growth”.

On to `OCC(O)COCc1ccccc1` (stereo not drawn) [Benzylglycerin], for which, in the assay with Candida albicans (DIN 58940), the “MIC values Candida albicans” value was 20000 ppm. Further, the “MIC values Escherichia coli” value in the assay on Escherichia coli (DIN 58940) was determined as 10000 ppm. Further, the “MIC values Pseudomonas aeruginosa” value with Pseudomonas aeruginosa (DIN 58940) stood at 20000 ppm. In addition, in the assay with Staphylococcus aureus (DIN 58940), the “MIC values Staphylococcus aureus” value was determined as 20000 ppm. Moreover, the “MIC values Aspergillus brasiliensis” value in the assay on Aspergillus brasiliensis (DIN 58940) is listed as 20000 ppm.

On to `CCCCC(CC)COCC(O)CO` (stereo not drawn) [EHG, ethylhexyl glycerin], for which the Colony counts came to 315.000 cfu/g formulation with A. brasiliensis (setting [3]); 159.000 cfu/g formulation in the assay with A. brasiliensis (setting [4]); 150.000 cfu/g formulation in the assay with A. brasiliensis (setting [5]); 304.000 cfu/g formulation with A. brasiliensis (setting [6]); 304.000 cfu/g formulation with A. brasiliensis (setting [7]). Besides, the Relative colony counts in the assay on A. brasiliensis (setting [3]) was 0.5048; with A. brasiliensis (setting [4]) it was 0.4762; in the assay with A. brasiliensis (setting [5]), 0.9635; with A. brasiliensis (setting [6]), 0.9635; in the assay on A. brasiliensis (setting [7]), 0.5048. Moreover, the “MIC values Candida albicans” value in the assay with Candida albicans is 2000 ppm. For the same compound, in the assay with Escherichia coli, the “MIC values Escherichia coli” value was 2500 ppm. Besides, the “MIC values Pseudomonas aeruginosa” value in the assay on Pseudomonas aeruginosa is recorded as more than 20000 ppm. For the same compound, in the assay with Staphylococcus aureus, the “MIC values Staphylococcus aureus” value is listed as 2000 ppm. Also, the “MIC values Aspergillus brasiliensis” value in the assay with Aspergillus brasiliensis is 2000 ppm.

As to `CCCCC(O)CO` (stereo not drawn) [HD, 1,2-Hexanediol], the Colony counts in the assay with A. brasiliensis (day 0, 3.0% in formulation) was 305.000 cfu/g formulation; with A. brasiliensis (day 2, 3.0% in formulation), 306.000 cfu/g formulation; in the assay with A. brasiliensis (day 7, 3.0% in formulation) it was 266.000 cfu/g formulation; in the assay with A. brasiliensis (day 14, 3.0% in formulation) it was 96.000 cfu/g formulation; with A. brasiliensis (day 28, 3.0% in formulation), less than 100 cfu/g formulation. In addition, the Relative colony counts in the assay with A. brasiliensis (day 0, 3.0% in formulation) is 1.0000; in the assay on A. brasiliensis (day 2, 3.0% in formulation), 1.0033; in the assay on A. brasiliensis (day 7, 3.0% in formulation) it was 0.8721; in the assay with A. brasiliensis (day 14, 3.0% in formulation), 0.3148; in the assay with A. brasiliensis (day 28, 3.0% in formulation), 0.0003. Also, the MIC in the assay with Candida albicans (DIN 58940) came out at 20000 µg/mL; in the assay on Escherichia coli (DIN 58940) it was 10000 µg/mL; in the assay with Pseudomonas aeruginosa (DIN 58940), 10000 µg/mL; with Staphylococcus aureus (DIN 58940) it was 20000 µg/mL; in the assay with Aspergillus brasiliensis (DIN 58940) it was 10000 µg/mL.

In the case of `CCCCCCCOCC(O)CO` (stereo not drawn) [Heptylglycerin], in the assay on Candida albicans (DIN 58940), the “MIC values Candida albicans” value is reported as 2000 ppm. Moreover, the “MIC values Escherichia coli” value in the assay with Escherichia coli (DIN 58940) was 2000 ppm. For the same compound, the “MIC values Pseudomonas aeruginosa” value in the assay with Pseudomonas aeruginosa (DIN 58940) worked out at 5000 ppm. In the assay with Staphylococcus aureus (DIN 58940), the “MIC values Staphylococcus aureus” value amounted to 2500 ppm. Besides, in the assay on Aspergillus brasiliensis (DIN 58940), the “MIC values Aspergillus brasiliensis” value came to 1000 ppm.

On to `CCCCCCOC[C@@H](O)CO` [Hexylglycerin], for which, in the assay with Candida albicans (DIN 58940), the “MIC values Candida albicans” value was 6000 ppm. Also, in the assay with Escherichia coli (DIN 58940), the “MIC values Escherichia coli” value is 4000 ppm. Further, the “MIC values Pseudomonas aeruginosa” value in the assay on Pseudomonas aeruginosa (DIN 58940) worked out at 6000 ppm. Moreover, the “MIC values Staphylococcus aureus” value with Staphylococcus aureus (DIN 58940) was determined as 6000 ppm. Besides, the “MIC values Aspergillus brasiliensis” value with Aspergillus brasiliensis (DIN 58940) was 4000 ppm.

Turning to `CCCCCCCCOCC(O)CO` (stereo not drawn) [Octylglycerin], the “MIC values Candida albicans” value with Candida albicans (DIN 58940) is recorded as 1000 ppm. Also, the “MIC values Escherichia coli” value in the assay on Escherichia coli (DIN 58940) came out at 1000 ppm. Further, the “MIC values Pseudomonas aeruginosa” value in the assay on Pseudomonas aeruginosa (DIN 58940) is more than 2000 ppm. The “MIC values Staphylococcus aureus” value in the assay with Staphylococcus aureus (DIN 58940) is 1000 ppm. In addition, the “MIC values Aspergillus brasiliensis” value in the assay on Aspergillus brasiliensis (DIN 58940) is 500 ppm.
